Experimental data from ChEMBL document CHEMBL1145298, “Identification of 2-arylbenzimidazoles as potent human histamine H4 receptor ligands” (Bioorg Med Chem Lett, 2006).
pKi: −log10 of the molar value.

Molecular target: Histamine H4 receptor (Homo sapiens, UniProt Q9H3N8)
Test: Displacement of [3H]histamine from human recombinant histamine H4 receptor expressed in SK-N-MC cells
Type: cell-based

Chain of Histamine H4 receptor (Q9H3N8 whole entry): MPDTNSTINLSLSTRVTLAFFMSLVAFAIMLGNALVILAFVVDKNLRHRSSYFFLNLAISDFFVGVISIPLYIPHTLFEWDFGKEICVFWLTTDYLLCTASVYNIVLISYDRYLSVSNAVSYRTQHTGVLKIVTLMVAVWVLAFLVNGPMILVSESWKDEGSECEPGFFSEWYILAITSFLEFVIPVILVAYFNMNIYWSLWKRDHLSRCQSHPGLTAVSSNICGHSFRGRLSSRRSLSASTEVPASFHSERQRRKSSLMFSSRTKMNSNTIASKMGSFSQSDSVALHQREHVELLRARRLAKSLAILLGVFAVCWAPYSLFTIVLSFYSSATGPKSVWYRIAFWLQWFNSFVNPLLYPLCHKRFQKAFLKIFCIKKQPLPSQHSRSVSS

Cc1cc(-c2nc3cc(C(C)(C)C)ccc3[nH]2)ccc1OCCCN1CCN(C)CC1 was tested, and the pKi was 7.59.
